# Key:
# [1] = Transmetallation with ZnCl solution; format: physicochemical; conditions: free Gd; 10% by weight ZnCl solution; unit not given
# Text: 10% by weight ZnCl solution was used to support the serum results, arguing that Zn substitution of Gd in the chelate quantifies the stability of the Gd-DOTA in much the same way that metals in serum block Gd3+ recombination with the chelate, but with more precision, since the contents of bovine serum is variable among mammals.
# [2] = Free Gd3+ after exposure to bovine serum; format: physicochemical
# Protocol: To show these metastable intermediates readily evolve into free Gd3+, Gd-DOTA was placed in a solution of bovine serum and the amount of Gd3+ was measured.
# Bovine blood was obtained at a local slaughterhouse, citrated, centrifuged and serum was obtained and frozen. In tests, serum was slowly heated to body temperature and 1% Gd-DOTA by weight was added to serum and placed on rocker for 30 minutes. Ten samples were tested for each test article.
# [3] = pH controlled synthesis, free Gd versus synthesis time; format: physicochemical
# Protocol: Here, Example 1A is modified by the addition of gadolinim oxide in its entirety at first and immediately after the introduction of the DOTA, and this procedure is used to produce batch A of Gd-DOTA. Batch B is produced using the following modified procedure.
# • 1. Heat reactor to 95° C. • 2. Charge water with all of gadolinium oxide • 3. Stir (stir unless otherwise indicated, nominal rate 300 rpm) until the solution is clear • 4. Add sufficient DOTA to obtain a pH of 4 • 5. When pH is >5 charge sufficient DOTA to reach pH of 4 • 6. Stir until uniformly distributed in the water, and clear • 7. If pH<4, then go to step 9 • 8. Go to step 4 • 9. Divide remaining portion of DOTA into 5 parts • 10. Add 1 part of remaining DOTA • 11. Stir until uniformly distributed in the water, and clear • 12. If DOTA remains to be added go to step 10 • 13. Continue to cook for a total of 12 hours Results
# [4] = Feasibility of cation exchange (sodium polystyrene sulfonate), free Gd3+ by xylenol orange; format: physicochemical; conditions: before sodium polystyrene sulfonate treatment
# Protocol: Feasibility of cation exchange as a method of making Gd-DOTA with low metastable intermediates
# Using sodium polystyrene sulfonate, rather than the polymer described above.
# Ten samples were stored at room temperature with a stoichiometric amount of sodium polystyrene sulfonate.
# Samples were tested using the improved spectrometric xylenol orange method.
# [5] = Free Gd3+ baseline / in vial, xylenol orange; format: physicochemical
# Text: Additionally or alternately, an improved version of the xylenol orange titration of free Gd3+ in the USP can be used as both an in-process check and a final product check. To obtain a limit of detection adequate for the product produced in the above claims, UV spectroscopy must be used in conjunction with the titration to measure the xylenol orange/free Gd reaction. Furthermore, an indirect measure of metastable intermediates is obtained when the titration reaction is allowed to proceed past the initial reaction of xylenol orange and free Gd. This is because xylenol orange will pull Gd from the metastable intermediates over time. […] Free Gadolinium was determined by using the spectrometric xylenol orange technique described in previous studies.
# [6] = Feasibility of excess DTPA, free Gd3+ by xylenol orange; format: physicochemical; conditions: new 12 hour sample before DTPA
# Protocol: The metastable intermediate concentration is determined by Example 3, and associated methods described in the present application. A Gd-DOTA synthesis containing metastable intermediates is heated to 95° C. in the presence of a stoichiometric amount of DTPA sufficient to consume all the metastable intermediates. The presence of metastable intermediates can be measured as a function of time. The reaction is continued until a desired metastable intermediate content is obtained. Depending on the amount of free DOTA thus liberated, the free DOTA can be reacted with a positively charged resin, as is known in the art. Alternatively, the free DOTA may serve as a buffer against free Gd3+ formation, as is permitted in some drug formulations. Ten samples were prepared by adding stoichiometric amounts of DTPA to counter the excess Gd3+ and stored at room temperature for 24 hours. Samples were tested using the improved spectrometric xylenol orange method.
# [7] = Feasibility of acid precipitation, free Gd3+ by xylenol orange; format: physicochemical; conditions: 12 hour sample, 1 hr 0.1 M HCl, buffer to pH 7.0, filtration
# Protocol: The feasibility of acid precipitation as a method for making Gd-DOTA with low metastable intermediate forms was tested.
# Ten samples were tested using the improved spectrometric xylenol orange method after 1 hr exposure to acid (0.1 M HCl), buffer to pH 7.0, and filtration of the precipitate. • 12 hour Example 1A sample was used at 803 ppm Gd3+ • After acid precipitation (N=5) • 8.6+/−9.2 ppm Gd3+ range: 15.9 ppm Gd3+ to undetectable
# Ten samples were tested using the improved spectrometric xylenol orange method after 1 hr exposure to acid (0.1 M HCl), buffer to pH 7.0, and filtration of the precipitate. • 12 hour Example 1B sample was used at 803 ppm Gd3+ • After acid precipitation (N=5) • 8.6+/−9.2 ppm Gd3+ range: 15.9 ppm Gd3+ to undetectable.
# [8] = format: physicochemical
# Text: Ironically, Gd-DTPA has a more favorable binding constant than does Gd-DOTA at pH 7.4. For less basic ligands like Gd-DTPA-BMA and DOTA-(gly)4, the experimental values are closer to the theoretical thermodynamic stability constant because there is less competition from available protons at pH 7.4.
# [9] = Free Gd(III) in incompletely synthesized complex solution; format: physicochemical; conditions: mean of five reactions
# Protocol: Then, the content of free DOTA, free gadolinium, and complex was determined, and the final content of excess free DOTA was set. Five reactions were run, using 4.05 g of DOTA, 15 ml water, and 1.78 g of gadolinium oxide. Ten spectroscopic measurements using Xylenol orange were conducted. […] This is the molar amount of xylenol orange added to each reaction product. One can use: Understanding that the denominator is a constant and Abs^573 is the number of free Gd(III) ions that react with the xylenol orange. This is a conservative measure of ppm, given by the ratio of free gadolinium and total gadolinium in the reactant (×10^6). Another possible definition, which would give a higher number (less conservative) is simply comparing free gadolinium to complexed gadolinium, which would mean ppm of free gadolinium for every million complexed gadolinium.
compound,measurement,setting,value
"CNC[C@H](O)[C@@H](O)[C@H](O)[C@H](O)CO.O=C([O-])CN1CCN(CC(=O)[O-])CCN(CC(=O)O)CCN(CC(=O)[O-])CC1.[Gd+3] [Example 1, Gd-DOTA]",Transmetallation,[1],88 +/− 16.8
same,Free Gd+ after serum,"[2]; 1% Gd-DOTA by weight in bovine serum, body temperature, rocker 30 minutes, ppm adjusted to pre-diluted level",88 +/− 16.8 ppm
same,In Serum,"[2]; free Gd, unit not given",2.9 +/− 0.8
same,Free Gd,[3]; synthesis time 4 hrs,"17,467 +/− 9.4 ppm"
same,Free Gd,[3]; synthesis time 8 hrs,"3,448 +/− 8.9 ppm"
same,Free Gd,[3]; synthesis time 12 hrs,803 +/− 8.1 ppm
same,Gd3+ of starting sample,[4],2146 ppm
same,Baseline Free Gd3+,"[5]; before serum, ppm adjusted to pre-diluted level at drug concentration",0.77 +/− 0.92 ppm
same,In Vial,"[5]; free Gd, no unit printed in this table (ppm in the 1st table)",0.77 +/− 0.92
same,Gd3+ of starting sample,[6],2146 ppm
"O=C([O-])CN1CCN(CC(=O)[O-])CCN(CC(=O)O)CCN(CC(=O)[O-])CC1.[Gd+3] [Example 2A, Gd-DOTA]","Gd3+ after acid precipitation, range (upper value, down to undetectable)",[7],≤ 15.9 ppm
same,Gd3+ after acid precipitation,[7]; N=5,8.6+/−9.2 ppm
"CNC[C@H](O)[C@@H](O)[C@H](O)[C@H](O)CO.O=C([O-])CN1CCN(CC(=O)[O-])CCN(CC(=O)O)CCN(CC(=O)[O-])CC1.[Gd+3] [Gd-DOTA, gadoterate meglumine, reference compound]",stability lower at pH 7.4,[8],7 orders of magnitude
same,in-bottle measured free gadolinium,[5]; commercial product stored in bottle,10^13 Gd3+ ions in 100 ml of GCA product
Gd-DOTA [Example 4],"Free Gd(III), MEAN",[9],"30,989 +/− 9410 ppm"
